From patent US10774049B2, “PU.1 inhibitors” (Albert Einstein College of Medicine, priority 2016, dated 2020)
pIC50: −log10 of the molar value. Structures can show the parent of a compound that is named as a salt. Where two headings read alike, the source gives them in different places.

What was measured:
PU.1 transactivation = test: GFP reporter expression in bone marrow mononuclear cells of PU.1-GFP knock-in reporter mouse; assay type: cell-based; details: PU.1-GFP knock-in bone marrow mononuclear cells
Excerpt: To assess on-target activity of our inhibitors in AML cells, we measured transcript levels of well-known PU.1 targets in PU.1 URE^−/− AML cells. It has been shown that PU.1 positively regulates Csf1r, Junb, and autoregulates itself, whereas it represses E2f1. In line with this, we found a decrease in Csf1r, Junb, and PU.1 transcript expression and an increase in E2f1 expression upon treatment with DB2115, or DB2313 (FIG. 4A, left panel). As Csf1r is one of the most sensitive PU.1 targets in myeloid cells, we assessed its expression at different time points (1 h, 4 h, 8 h and 24 h) after drug treatment. […] Furthermore, treatment of bone marrow mononuclear cells isolated from a PU.1-GFP knock-in reporter mouse model led to a decrease in GFP reporter expression after treatment with DB1976, DB2115, or DB2313, further confirming a direct effect of the compounds on PU.1 transactivation (FIG. 4B), and consistent with PU.1 positive autoregulation.

PU.1 URE−/− AML cells = test: Apoptosis (Annexin-V+Dapi−) in PU.1 URE−/− AML cells; assay type: cell-based; details: murine PU.1 URE−/− AML cells, 48 h, vs vehicle
Protocol: (§1) FIG. 2A-2F. PU.1 inhibition decreases cell growth and increases apoptosis of PU.1^1″ leukemic cells. (A) Chemical structures of heterocyclic diamidines DB1976, DB2115 and DB2313 used in this study. (B) Relative cell viability of URE−/− cells and BAF3 cells after treatment with increasing concentrations of vehicle or small molecules. Cell viability was assessed after 48 h. Data represent means of technical triplicate from one representative experiment; fold change compared to Vehicle is shown. (C) Cell proliferation assay of URE−/− after treatment with DB1976 (n=5), DB2115 (n=3), DB2313 (n=3), of MOLM13 cells (n=3), and THP1 cells (n=3). Cell counting was performed every 24 h during 4 days. Data represent means±SD of technical triplicate from one representative experiment. Forward strand: SEQ ID NO:3, and Reverse strand: SEQ ID NO:4; derived from the λB motif from the murine Ig lambda 2-4 enhancer, a known native PU.1-dependent gene and specific binding site for PU.1. (D) Clonogenic capacities of URE−/− cells after treatment with DB1976 (n=5), DB2115 (n=3) and DB2313 (n=4) in the first plating, and after serial replatings (n=3). Data represent means±SD of technical triplicate from one representative experiment. (E) Apoptotic cells (Annexin-V+Dapi−) fraction in URE−/− cells after 48 h of treatment with DB1976 (n=6), DB2115 (n=6) and DB2313 (n=3). Data represent the means±SD of independent experiments; fold change compared to Vehicle is shown. *P<0.05, **P<0.01, ***P<0.001, ****P<0.0001 (F) Dose dependent inhibitor of PU.1-dependent transactivation.
To determine if our PU.1 inhibitors have an effect on PU.1^low-induced AML cells, we treated the PU.1 URE^−/− AML cell line with compounds at different concentrations. Treatment with the drugs led to a profound decrease in growth of PU.1 URE^−/− AML cells after 48 h whereas it had only minimal or no effects on control cells with normal PU.1 levels (BaF3), even at very high doses (FIG. 3A). […]

primary human AML cells = test: Primary human AML mononuclear cells in semi-solid media (viable cells, colonies, apoptosis); assay type: cell-based; details: for mean decrease in number of viable cells / mean decrease of clonogenic capacity: in comparison to vehicle; for average increase of apoptotic cell fraction: vs vehicle
Protocol: FIG. 4A-4G. PU.1 inhibition decreases cell growth and increases apoptosis of primary human AML cells. (A-C) Transduced GFP+ human primary mononuclear AML cells were plated in semi-solid media (150 000 cells per ml of methyl); colony number, number of viable cells and apoptotic cells were assessed after 14 days of culture. (A, B) Clonogenic capacities and number of viable cells after transduction with shPU.1_1 and shPU.1_2 (n=7). (C) Apoptotic cells (Annexin-V+Dapi−) fraction after transduction with shPU.1_1 and shPU.1_2 (n=7). (D-F) Human primary mononuclear AML cells were plated in semi-solid media (150 000 cells per ml of methyl) containing the PU.1 inhibitors DB1976, DB2115 and DB2313; colony number, number of viable cells and apoptotic cells were assessed after 14 days of culture. (D-E) Clonogenic capacities (n=9) and number of viable cells (n=8) after treatment. (F) Apoptotic cells (Annexin-V+Dapi−) fraction after treatment (n=8). […] (A-G) Data represent means±SD, each AML sample is represented by an individual dot. Fold change compared to shCtrl or Vehicle is shown.
To determine whether PU.1 inhibition has an effect on primary cells from AML patients, we seeded mononuclear cells from AML patients in semi-solid media for 2 weeks and assessed the number of colonies, the number of viable cells and the proportion of apoptotic cells. […] At the same time, the proportion of apoptotic cells increased on average of 2-fold upon knockdown of PU.1 in primary human AML cells with the more efficient shRNA (shPU.1_2) (FIG. 1F).
We also explored the effect of the small molecule PU.1 inhibitors on primary human AML cells, and treated 11 samples from AML patients with PU.1 inhibitors. PU.1 inhibitors led to significant decreases in the number of viable cells (mean decrease: 81% for DB1976, 68% for DB2115, 72% for DB2313) (FIG. 3E), and clonogenic capacity (mean decrease of 36% for DB1976, 45% for DB2115, 60% for DB23313), in comparison to vehicle (FIG. 3F). The apoptotic cell fraction increased on average by 1.5-fold with DB1976, 2.2-fold with DB2115 and 2.5-fold with DB2313 (FIG. 3G).

[1] = test system: PU.1 URE−/− AML cell line; test: Cell viability/growth of PU.1 URE−/− AML cells; assay type: cell-based, murine; details: Mus musculus
Protocol: as §1
To determine if our PU.1 inhibitors have an effect on PU.1^low-induced AML cells, we treated the PU.1 URE^−/− AML cell line with compounds at different concentrations. Treatment with the drugs led to a profound decrease in growth of PU.1 URE^−/− AML cells after 48 h whereas it had only minimal or no effects on control cells with normal PU.1 levels (BaF3), even at very high doses (FIG. 3A). […] Similar to our observations with PU.1-directed shRNAs, treatment with pharmacological PU.1 inhibitors led to a significant 1.6-, 2- and 3.5-fold increase of apoptotic cells with DB1976, DB2115 and DB2313, respectively, in murine PU.1 URE^−/− AML cells (FIG. 3C), and similar effects in human MOLM13 cells.

[2] = after 48 h, read-out: IC50 in PU.1 URE−/− AML

N=C(N)c1ccc2nc(-c3ccc(-c4nc5ccc(C(=N)N)cc5[nH]4)[se]3)[nH]c2c1 [DB1976]
GFP reporter expression (PU.1 transactivation): decrease
fold increase of apoptotic cells (PU.1 URE−/− AML cells): 1.6 fold
mean decrease in number of viable cells (primary human AML cells): 81%
mean decrease of clonogenic capacity (primary human AML cells): 36%
average increase of apoptotic cell fraction (primary human AML cells): 1.5 fold
pIC50 [1, 2]: 4.60

N=C(N)c1ccc2nc(-c3ccc(OCCCCOc4ccc(-c5nc6ccc(C(=N)N)cc6[nH]5)cc4)cc3)[nH]c2c1 [DB2115]
GFP reporter expression (PU.1 transactivation): decrease
fold increase of apoptotic cells (PU.1 URE−/− AML cells): 2 fold
mean decrease in number of viable cells (primary human AML cells): 68%
mean decrease of clonogenic capacity (primary human AML cells): 45%
average increase of apoptotic cell fraction (primary human AML cells): 2.2 fold
pIC50 [1, 2]: 6.15

CC(C)NC(=N)c1ccc2nc(-c3ccc(OCc4cccc(COc5ccc(-c6nc7ccc(C(=N)NC(C)C)cc7[nH]6)cc5)c4F)cc3)[nH]c2c1 [DB2313, 3-Bis{4[4(5)-N-isopropylamidinobenzimidazolyl]phenoxymethyl]}-2-fluorobenzene tetrahydrochloride]
GFP reporter expression (PU.1 transactivation): decrease
fold increase of apoptotic cells (PU.1 URE−/− AML cells): 3.5 fold
mean decrease in number of viable cells (primary human AML cells): 72%
mean decrease of clonogenic capacity (primary human AML cells): 60%
average increase of apoptotic cell fraction (primary human AML cells): 2.5 fold
pIC50 [1, 2]: 6.48
pIC50 ([1]; read-out: IC50 URE−/−): 6.48
